Active and inactive are the calls of the source. The calls are words filed in the database; no cut-off is given here.
Legend:
PC-3 [1] = experiment: Cytotoxicity against human PC-3 cells assessed as reduction in cell viability at 100 uM measured after 24 hrs by MTT assay; assay type: functional, cell-based
PC-3 [2] = experiment: Cytotoxicity against human PC-3 cells assessed as reduction in cell viability at 100 uM measured after 24 hrs by MTT assay relative to control; assay type: functional
PC-3 [3] = experiment: Cytotoxicity against human PC-3 cells assessed as reduction in cell viability measured after 24 hrs by MTT assay; assay type: functional, cell-based; conditions: PC-3, 24 h
PC-3 [4] = experiment: Cytotoxicity against human PC-3 cells assessed as reduction in cell viability at 10 uM measured after 24 hrs by MTT assay relative to control; assay type: functional
PC-3 [5] = experiment: Cytotoxicity against human PC-3 cells assessed as reduction in cell viability at 25 uM measured after 24 hrs by MTT assay relative to control; assay type: functional
PC-3 [6] = experiment: Cytotoxicity against human PC-3 cells assessed as reduction in cell viability at 50 uM measured after 24 hrs by MTT assay relative to control; assay type: functional

| Compound | Activity (PC-3 [1]) | Activity (PC-3 [2]) [%] | IC50 (PC-3 [3]) [µM] | Activity (PC-3 [4]) [%] | Activity (PC-3 [5]) [%] | Activity (PC-3 [6]) [%] |
| --- | --- | --- | --- | --- | --- | --- |
| C/C(=C\c1cnn(-c2ccccc2)n1)C(=O)c1ccc(C(F)(F)F)cc1 | inactive |  |  |  |  |  |
| C/C(=C\c1cnn(-c2ccccc2)n1)C(=O)c1ccc(F)cc1 | inactive |  |  |  |  |  |
| COc1ccc(C(=O)/C=C/c2cnn(-c3ccccc3)n2)c(OC)c1 |  | 5.37 | 25.6 | 73.03 | 16.03 |  |
| O=C(/C=C/c1cnn(-c2ccccc2)n1)c1ccccc1 |  | 6.38 | 28.6 | 73.62 | 44.7 |  |
| O=C(/C=C/c1cnn(-c2ccccc2)n1)c1cccs1 |  | 24.23 | 47.9 |  |  | 50 |
| C/C(=C\c1cnn(-c2ccccc2)n1)C(=O)c1ccccc1 | inactive |  |  |  |  |  |
| Cc1ccc(C(=O)/C=C/c2cnn(-c3ccccc3)n2)c(C)c1 |  | 0 | 15.6 | 85.61 | 39.03 | 3 |
| COc1cc(-c2cccs2)cc(-c2nnn(Cc3ccccc3)c2C)n1 |  |  | 1.03 |  |  |  |
| COc1cccc2c1C(=O)c1c(O)c3c(c(O)c1C2=O)C[C@@](O)(C(=O)CO)C[C@@H]3O[C@H]1C[C@H](N)[C@H](O)[C@H](C)O1 [DOXORUBICIN] |  |  | 0.77 |  |  |  |

— ChEMBL document CHEMBL4699455, “2H-1,2,3-Triazole-chalcones as novel cytotoxic agents against prostate cancer” (Bioorg Med Chem Lett, 2020)
